# Source: US20210220374A1, “METHODS OF TREATING TE[…]” (Clarus Therapeutics, Inc., priority 2013, published 2021)
# Assay: Contingency table classification of C(t) acceptance range as surrogate for Cavg
# Set-up: species or system hypogonadal men
# Conditions: for Percent of Subjects: C(t) in range / Percent of Subjects: C(t) too high / Percent of Subjects: C(t) too low / Percent of Subjects: Cavg in range & C(t) in range / Percent of Subjects: Cavg in range & C(t) too high / Percent of Subjects: Cavg in range & C(t) too low / Percent of Subjects: Cavg too high & C(t) too high / Percent of Subjects: Cavg too low & C(t) in range / Percent of Subjects: Cavg too low & C(t) too low / Percent of Subjects: Cavg too high & C(t) in range: Cavg 300-1000 ng/dL; for Percent of subjects: Cavg in Range F & C(t) in Range F (total of too high and too low): Cavg 300-1000
# Text: For the contingency table approach, the number and percentage of subjects that fell into each of the following seven categories were enumerated, for each of the candidate time points, and for each candidate target range for Cavg, and for each candidate acceptance range for C(t). • 1. Subjects with Cavg within range and with C(t) within range • 2. Subjects with Cavg below range and with C(t) below range • 3. Subjects with Cavg above range and with C(t) above range • 4. Subjects with Cavg within range but with C(t) below range • 5. Subjects with Cavg within range but with C(t) above range • 6. Subjects with Cavg below range, but with C(t) within range • 7. Subjects with Cavg above range, but with C(t) within range
# If one defines a value as being “within range” as positive, and being “outside of range” as negative, then Group 1 is subjects that are “true positives”, Groups 2 and 3 are “true negatives”, groups 4 and 5 are “false negatives”, and groups 6 and 7 are “false positives”. Groups, 1, 2 and 3 represent successful predictions because C(t) is an appropriate surrogate for Cavg; Groups 4, 5, 6 and 7 are prediction failures because C(t) is an inaccurate surrogate for Cavg.
# Correlations and contingency table calculations were performed using built-in functions in the Excel module of Microsoft Office 2003 (Redmond, Wash.). Graphs were produced using the built-in charting capabilities of Excel.
# [1] = C(1.5), C(t) acceptance 130-1110
# [2] = C(6) alternate, C(t) acceptance 250-1700
# [3] = targeted Cavg 300-1000 ng/dL, 200 mg T BID as TU
smiles,measurement,setting,value
"CCCCCCCCCCC(=O)O[C@H]1CC[C@H]2[C@@H]3CCC4=CC(=O)CC[C@]4(C)[C@H]3CC[C@]12C [TU, testosterone undecanoate]",Percent of Subjects: C(t) in range,"C(0), C(t) acceptance 80-1000",87.8%
same,Percent of Subjects: C(t) too high,"C(0), C(t) acceptance 80-1000",C(t) too high 4.9%
same,Percent of Subjects: C(t) too low,"C(0), C(t) acceptance 80-1000",7.3%
same,Percent of Subjects: Cavg in range & C(t) in range,"C(0), C(t) acceptance 80-1000",75.6%
same,Percent of Subjects: Cavg in range & C(t) too high,"C(0), C(t) acceptance 80-1000",2.4%
same,Percent of Subjects: Cavg in range & C(t) too low,"C(0), C(t) acceptance 80-1000",2.4%
same,Percent of Subjects: Cavg too high & C(t) too high,"C(0), C(t) acceptance 80-1000",2.4%
same,Percent of Subjects: Cavg too low & C(t) in range,"C(0), C(t) acceptance 80-1000",7.3%
same,Percent of Subjects: C(t) in range,"C(1), C(t) acceptance 130-1000",85.4%
same,Percent of Subjects: C(t) too high,"C(1), C(t) acceptance 130-1000",2.4%
same,Percent of Subjects: C(t) too low,"C(1), C(t) acceptance 130-1000",12.2%
same,Percent of Subjects: Cavg in range & C(t) in range,"C(1), C(t) acceptance 130-1000",78.0%
same,Percent of Subjects: Cavg in range & C(t) too high,"C(1), C(t) acceptance 130-1000",0.0%
same,Percent of Subjects: Cavg in range & C(t) too low,"C(1), C(t) acceptance 130-1000",2.4%
same,Percent of Subjects: Cavg too high & C(t) too high,"C(1), C(t) acceptance 130-1000",2.4%
same,Percent of Subjects: Cavg too low & C(t) in range,"C(1), C(t) acceptance 130-1000",2.4%
same,Percent of Subjects: Cavg too low & C(t) too low,"C(1), C(t) acceptance 130-1000",9.8%
same,Percent of Subjects: C(t) in range,[1],90.2%
same,Percent of Subjects: C(t) too high,[1],0.0%
same,Percent of Subjects: C(t) too low,[1],9.8%
same,Percent of Subjects: Cavg in range & C(t) in range,[1],80.5%
same,Percent of Subjects: Cavg in range & C(t) too high,[1],0.0%
same,Percent of Subjects: Cavg in range & C(t) too low,[1],0.0%
same,Percent of Subjects: Cavg too high & C(t) in range,[1],7.3%
same,Percent of Subjects: Cavg too high & C(t) too high,[1],0.0%
same,Percent of Subjects: Cavg too low & C(t) in range,[1],2.4%
same,Percent of Subjects: Cavg too low & C(t) too low,[1],9.8%
same,Percent of Subjects: C(t) in range,"C(2), C(t) acceptance 150-1200",90.2%
same,Percent of Subjects: C(t) too high,"C(2), C(t) acceptance 150-1200",0.0%
same,Percent of Subjects: C(t) too low,"C(2), C(t) acceptance 150-1200",9.8%
same,Percent of Subjects: Cavg in range & C(t) in range,"C(2), C(t) acceptance 150-1200",80.5%
same,Percent of Subjects: Cavg in range & C(t) too high,"C(2), C(t) acceptance 150-1200",0.0%
same,Percent of Subjects: Cavg in range & C(t) too low,"C(2), C(t) acceptance 150-1200",0.0%
same,Percent of Subjects: Cavg too high & C(t) in range,"C(2), C(t) acceptance 150-1200",7.3%
same,Percent of Subjects: Cavg too high & C(t) too high,"C(2), C(t) acceptance 150-1200",0.0%
same,Percent of Subjects: Cavg too low & C(t) in range,"C(2), C(t) acceptance 150-1200",2.4%
same,Percent of Subjects: Cavg too low & C(t) too low,"C(2), C(t) acceptance 150-1200",9.8%
same,Percent of subjects: Cavg in Range F & C(t) in Range F (total of too high and too low),"C(3), C(t) acceptance 190-1450",7.3%
same,Percent of Subjects: C(t) in range,"C(3), C(t) acceptance 190-1500",90.2%
same,Percent of Subjects: C(t) too high,"C(3), C(t) acceptance 190-1500",0.0%
same,Percent of Subjects: C(t) too low,"C(3), C(t) acceptance 190-1500",9.8%
same,Percent of Subjects: Cavg in range & C(t) in range,"C(3), C(t) acceptance 190-1500",78.0%
same,Percent of Subjects: Cavg in range & C(t) too high,"C(3), C(t) acceptance 190-1500",0.0%
same,Percent of Subjects: Cavg in range & C(t) too low,"C(3), C(t) acceptance 190-1500",2.4%
same,Percent of Subjects: Cavg too high & C(t) in range,"C(3), C(t) acceptance 190-1500",7.3%
same,Percent of Subjects: Cavg too high & C(t) too high,"C(3), C(t) acceptance 190-1500",0.0%
same,Percent of Subjects: Cavg too low & C(t) in range,"C(3), C(t) acceptance 190-1500",4.9%
same,Percent of Subjects: Cavg too low & C(t) too low,"C(3), C(t) acceptance 190-1500",7.3%
same,Percent of Subjects: C(t) in range,"C(4), C(t) acceptance 250-1700",82.9%
same,Percent of Subjects: C(t) too high,"C(4), C(t) acceptance 250-1700",2.4%
same,Percent of Subjects: C(t) too low,"C(4), C(t) acceptance 250-1700",14.6%
same,Percent of Subjects: Cavg in range & C(t) in range,"C(4), C(t) acceptance 250-1700",75.6%
same,Percent of Subjects: Cavg in range & C(t) too high,"C(4), C(t) acceptance 250-1700",0.0%
same,Percent of Subjects: Cavg in range & C(t) too low,"C(4), C(t) acceptance 250-1700",4.9%
same,Percent of Subjects: Cavg too high & C(t) in range,"C(4), C(t) acceptance 250-1700",4.9%
same,Percent of Subjects: Cavg too high & C(t) too high,"C(4), C(t) acceptance 250-1700",2.4%
same,Percent of Subjects: Cavg too low & C(t) in range,"C(4), C(t) acceptance 250-1700",2.4%
same,Percent of Subjects: Cavg too low & C(t) too low,"C(4), C(t) acceptance 250-1700",9.8%
same,Percent of subjects: Cavg in Range F & C(t) in Range F (total of too high and too low),"C(4), C(t) acceptance 250-1700",12.2%
same,Percent of Subjects: C(t) in range,"C(5), C(t) acceptance 250-1400",82.9%
same,Percent of Subjects: C(t) too high,"C(5), C(t) acceptance 250-1400",4.9%
same,Percent of Subjects: C(t) too low,"C(5), C(t) acceptance 250-1400",12.2%
same,Percent of Subjects: Cavg in range & C(t) in range,"C(5), C(t) acceptance 250-1400",75.6%
same,Percent of Subjects: Cavg in range & C(t) too high,"C(5), C(t) acceptance 250-1400",2.4%
same,Percent of Subjects: Cavg in range & C(t) too low,"C(5), C(t) acceptance 250-1400",2.4%
same,Percent of Subjects: Cavg too high & C(t) in range,"C(5), C(t) acceptance 250-1400",4.9%
same,Percent of Subjects: Cavg too high & C(t) too high,"C(5), C(t) acceptance 250-1400",2.4%
same,Percent of Subjects: Cavg too low & C(t) in range,"C(5), C(t) acceptance 250-1400",2.4%
same,Percent of Subjects: Cavg too low & C(t) too low,"C(5), C(t) acceptance 250-1400",9.8%
same,Percent of subjects: Cavg in Range F & C(t) in Range F (total of too high and too low),"C(5), C(t) acceptance 250-1400",12.2%
same,Percent of Subjects: C(t) in range,[2],90.2%
same,Percent of Subjects: C(t) too high,[2],0.0%
same,Percent of Subjects: C(t) too low,[2],9.8%
same,Percent of Subjects: Cavg in range & C(t) in range,[2],80.5%
same,Percent of Subjects: Cavg in range & C(t) too high,[2],0.0%
same,Percent of Subjects: Cavg in range & C(t) too low,[2],0.0%
same,Percent of Subjects: Cavg too high & C(t) in range,[2],7.3%
same,Percent of Subjects: Cavg too high & C(t) too high,[2],0.0%
same,Percent of Subjects: Cavg too low & C(t) in range,[2],2.4%
same,Percent of Subjects: Cavg too low & C(t) too low,[2],9.8%
same,Percent of subjects: Cavg in Range F & C(t) in Range F (total of too high and too low),[2],9.8%
same,Percent of Subjects: C(t) in range,"C(6), C(t) acceptance 250-1100",75.6%
same,Percent of Subjects: C(t) too high,"C(6), C(t) acceptance 250-1100",14.6%
same,Percent of Subjects: C(t) too low,"C(6), C(t) acceptance 250-1100",9.8%
same,Percent of Subjects: Cavg in range & C(t) in range,"C(6), C(t) acceptance 250-1100",73.2%
same,Percent of Subjects: Cavg in range & C(t) too high,"C(6), C(t) acceptance 250-1100",7.3%
same,Percent of Subjects: Cavg in range & C(t) too low,"C(6), C(t) acceptance 250-1100",0.0%
same,Percent of Subjects: Cavg too high & C(t) in range,"C(6), C(t) acceptance 250-1100",0.0%
same,Percent of Subjects: Cavg too high & C(t) too high,"C(6), C(t) acceptance 250-1100",7.3%
same,Percent of Subjects: Cavg too low & C(t) in range,"C(6), C(t) acceptance 250-1100",2.4%
same,Percent of Subjects: Cavg too low & C(t) too low,"C(6), C(t) acceptance 250-1100",9.8%
same,Percent of subjects: Cavg in Range F & C(t) in Range F (total of too high and too low),"C(6), C(t) acceptance 250-1100",17.1%
same,Percent of Subjects: C(t) in range,"C(8), C(t) acceptance 200-1300",95.1%
same,Percent of Subjects: C(t) too high,"C(8), C(t) acceptance 200-1300",4.9%
same,Percent of Subjects: C(t) too low,"C(8), C(t) acceptance 200-1300",0.0%
same,Percent of Subjects: Cavg in range & C(t) in range,"C(8), C(t) acceptance 200-1300",80.5%
same,Percent of Subjects: Cavg in range & C(t) too high,"C(8), C(t) acceptance 200-1300",0.0%
same,Percent of Subjects: Cavg in range & C(t) too low,"C(8), C(t) acceptance 200-1300",0.0%
same,Percent of Subjects: Cavg too high & C(t) in range,"C(8), C(t) acceptance 200-1300",2.4%
same,Percent of Subjects: Cavg too high & C(t) too high,"C(8), C(t) acceptance 200-1300",4.9%
same,Percent of Subjects: Cavg too low & C(t) in range,"C(8), C(t) acceptance 200-1300",12.2%
same,Percent of Subjects: Cavg too low & C(t) too low,"C(8), C(t) acceptance 200-1300",0.0%
same,Percent of subjects: Cavg in Range F & C(t) in Range F (total of too high and too low),"C(8), C(t) acceptance 200-1300",4.9%
same,Percent of Subjects: C(t) in range,"C(12), C(t) acceptance 100-680",92.7%
same,Percent of Subjects: C(t) too high,"C(12), C(t) acceptance 100-680",4.9%
same,Percent of Subjects: C(t) too low,"C(12), C(t) acceptance 100-680",2.4%
same,Percent of Subjects: Cavg in range & C(t) in range,"C(12), C(t) acceptance 100-680",80.5%
same,Percent of Subjects: Cavg in range & C(t) too high,"C(12), C(t) acceptance 100-680",0.0%
same,Percent of Subjects: Cavg in range & C(t) too low,"C(12), C(t) acceptance 100-680",0.0%
same,Percent of Subjects: Cavg too high & C(t) in range,"C(12), C(t) acceptance 100-680",2.4%
same,Percent of Subjects: Cavg too high & C(t) too high,"C(12), C(t) acceptance 100-680",4.9%
same,Percent of Subjects: Cavg too low & C(t) in range,"C(12), C(t) acceptance 100-680",9.8%
same,Percent of Subjects: Cavg too low & C(t) too low,"C(12), C(t) acceptance 100-680",2.4%
same,Percent of subjects: Cavg in Range F & C(t) in Range F (total of too high and too low),"C(12), C(t) acceptance 100-680",7.3%
same,Percent of Subjects: Cavg in range,[3],80.5%
same,Percent of Subjects: Cavg to low,[3],12.2%
same,Percent of Subjects: Cavg too high,[3],7.3%
